Strand notation (5' to 3'): a small letter for the sugar, then the base; units joined by * are phosphorothioate-linked, units joined directly phosphodiester-linked; [ ] holds rarer units or linkages, { } end groups; capitals alone tell only the bases. e = 2'-O-(2-methoxyethyl) (MOE); [5mC] = 5-methylcytosine; d = 2'-deoxy (DNA)
Experiments:
mouse RANKL mRNA [1] = test: Antisense inhibition of mouse RANKL mRNA in C2C12 cells: dose response (Table 5); format: cell-based; conditions: relative to untreated control
Method: (§1) Cells were seeded into 24-well plates (Falcon-353047 at a density of ˜10,000 cells/cm^2 for use in antisense oligonucleotide transfection.
(§2) Cells are treated and data are obtained in triplicate. […] Cells were harvested 16-24 hours after oligonucleotide treatment.
(§3) Probes and primers to mouse RANKL were designed to hybridize to a mouse RANKL sequence, using published sequence information (GenBank accession number AF013170.1, incorporated herein as SEQ ID NO:ll). For mouse RANKL the PCR primers were: • forward primer: […] (SEQ ID NO:12) • reverse primer: […] (SEQ ID NO: 13) and • the PCR probe was: FAM-[…]-TAMRA (SEQ ID NO: 14) where FAM is the fluorescent reporter dye and TAMRA is the quencher dye. For mouse GAPDH the PCR primers were: • forward primer: […](SEQ ID NO:15) • reverse primer: […](SEQ ID NO:16) and the • PCR probe was: 5′ JOE-[…]-TAMRA 3′ (SEQ ID NO: 17) where JOE is the fluorescent reporter dye and TAMRA is the quencher dye.
In accordance with the present invention, a subset of the antisense oligonucleotides in Example 16 was further investigated in dose-response studies. The oligonucleotides used in this investigation were ISIS 180812 (SEQ ID NO: 178), ISIS 180814 (SEQ ID NO: 180), ISIS 180819 (SEQ ID NO: 185), ISIS 180828 (SEQ ID NO: 194) and the control oligonucleotide ISIS 101757 ([…], SEQ ID NO: 355). […] All cytidine residues are 5-methylcytidines.
C2C12 cells were treated with the oligonucleotides at 10, 50, 75, 100, and 150 nM as described in other examples herein. […] The results are expressed as percent inhibition relative to the untreated control. The data, shown in Table 5, are averages from two experiments and illustrate the oligonucleotides of the present invention are able to downregulate RANKL mRNA expression in a dose-dependent manner.

mouse RANKL mRNA [2] = test: Antisense inhibition of mouse RANKL mRNA levels in C2C12 cells, quantitative real-time PCR (Table 2); format: cell-based; design: concentration or dose not given beside the values; conditions: averages from three experiments
Method: as §1, §2
PCR reagents were obtained from Invitrogen Corporation, (Carlsbad, Calif.).
as §3
In accordance with the present invention, a second series of antisense compounds was designed to target different regions of the mouse RANKL RNA, using published sequences (GenBank accession number AF013170.1, incorporated herein as SEQ ID NO: 11). […] All cytidine residues are 5-methylcytidines. […] If present “N.D.” indicates “no data”.

rat RANKL mRNA = test: Antisense inhibition of rat RANKL mRNA levels in UMR-106 cells, quantitative real-time PCR (Table 3); format: cell-based; design: concentration or dose not given beside the values; conditions: averages from three experiments
In short: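 UMR-106 cells transfected with antisense oligonucleotides (5-methylcytidine throughout) in triplicate, harvested 16-24 h after treatment. RANKL mRNA quantified by real-time RT-PCR with a FAM/TAMRA probe, using rat GAPDH (JOE/TAMRA probe) as the reference.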

[3] = Serum calcium concentration 24 hours after PTH infusion in mice treated with RANKL antisense oligonucleotides (Table 10); format: in vivo, mouse; conditions: mice
Method: In accordance with the present invention, the effect of antisense oligonucleotide inhibition on PTH-induced serum calcium concentration increase was measured in mice. The serum calcium concentration in mice was measured as a function of antisense oligonucleotide dose. Calcitonin, a known bone antiresorptive agent, was used as a control for antiresorptive activity.
Female Swiss-Webster (5-8 wks old) mice fed a low-calcium diet were dosed subcutaneously for two weeks with either the oligonucleotides ISIS 180819 (SEQ ID NO: 185) or 180814 (SEQ ID NO: 180) at concentrations of 5 mg/kg, 15 mg/kg, 30 mg/kg, or 40 mg/kg. A control group of mice were treated with calcitonin (400 ng) plus PTH (1 ug/100 g/6 hr), PTH alone (1 ug/100 g/6 hr) or saline. Treatment with oligonucleotides was followed with infusion of PTH by subcutaneously implanted mini-pumps at a dose of 1 ug/100 g/6 hr. After 24 hours of PTH infusion (total PTH delivery of 4 ug/100 g), the mice were sacrificed and the serum calcium concentration was measured with the Sigma Diagnostics Calcium Kit (Sigma-Aldrich). The data, summarized in Table 10 are averages from eight mice. Percent mRNA inhibition is normalized to PTH alone treatment.

RANK mRNA = test: Antisense inhibition of RANK mRNA expression in proximal tibia after PTH infusion in mice: specificity and dose response (Table 15); format: in vivo, mouse; conditions: for RANK mRNA % inhibition (normalized to PTH): then 24 h PTH, proximal tibia
Method: (§4) In accordance with the present invention, the specificity of RANK inhibition by a RANK antisense oligonucleotide was compared to that of an 8-base pair mismatch oligonucleotide.
(§5) ISIS 181080 ([…], SEQ ID NO: 357) is an antisense oligonucleotide targeted to mouse RANK. ISIS 208565 ([…], SEQ ID NO: 358) is an 8-base pair mismatch oligonucleotide. […] All cytidine residues are 5-methylcytidines.
(§6) Female Swiss-Webster mice (5-8 wks old) fed a low-calcium diet were treated for two weeks with either ISIS 181080 or ISIS 208565. The dose of oligonucleotide was either 40 mg/kg, 30 mg/kg, 20 mg/kg, or 10 mg/kg. After the 2-week treatment with oligonucleotides, the mice were infused with PTH by subcutaneously implanted mini-pumps at a dose of 4 ug/100 g over 24 hours. A group of control mice were dosed with either saline, PTH alone (1 ug/100 g/6 hr) or calcitonin (400 ng) plus PTH (1 ug/100 g/6 hr). After 24 hours of PTH infusion (total PTH delivery of 4 ug/100 g), the mice were sacrificed and measurements were made of serum calcium with the Sigma Diagnostics Calcium Kit (Sigma-Aldrich) and RANK mRNA expression in proximal tibia (as described in other examples herein). The results shown in Table 15 are the average from four mice per group. Percent inhibition of RANK mRNA is normalized to PTH treatment alone. […] The data also illustrate that these effects are occurring due to an antisense mechanism.

[4] = Serum calcium concentration after PTH infusion in mice: specificity and dose response of RANK antisense oligonucleotide (Table 15); format: in vivo, mouse; conditions: for serum calcium: then 24 h PTH
Method: as §4, §5, §6

[5] = Serum calcium after RANK antisense oligonucleotide treatment and PTH infusion: time course (Table 13); format: in vivo, mouse; conditions: control mice, no oligonucleotide; PTH 1 ug/100 g/6 hr 24 h, calcitonin (400 ug)
Method: In accordance with the present invention, ISIS 181071 was administered to mice for different time periods to evaluate its ability to inhibit RANK expression and PTH-induced serum calcium concentration increase as a function of oligonucleotide treatment time.
Female Swiss-Webster mice (5-8 wks old) were fed a low-calcium diet and received daily subcutaneous injections of 30 mg/kg of ISIS 181071 (SEQ ID NO: 356) for 2, 3, 5, 7, 10, 14, or 21 days. At the end of the oligonucleotide treatment period, mice were infused with PTH by subcutaneously implanted mini-pumps at a dose of 1 ug/100 g/6 hr. A group of control mice were dosed with either saline, PTH alone (1 ug/100 g/6 hr) or calcitonin (400 ug) plus PTH (1 ug/100 g/6 hr). Following 24 hours of PTH infusion (total PTH delivery of 4ug/100 g), the mice were sacrificed and measurements were made of serum calcium with the Sigma Diagnostics Calcium Kit (Sigma-Aldrich) and RANK mRNA expression in the proximal tibia (as described in other examples herein). Percent RANK mRNA inhibition is normalized to PTH alone treatment.

[6] = mice, two weeks 10, 20, 30 or 40 mg/kg, 24 hours PTH infusion

| Molecule | % Inhibition of RANKL mRNA (mouse RANKL mRNA [1]; 50 nM oligonucleotide) [%] | % Inhibition of RANKL mRNA (mouse RANKL mRNA [1]; 100 nM oligonucleotide) [%] | % INHIB (inhibition of mouse RANKL mRNA levels) (mouse RANKL mRNA [2]) | % INHIB (inhibition of rat RANKL mRNA levels) (rat RANKL mRNA) | further results |
| --- | --- | --- | --- | --- | --- |
| 101757 (antisense eA*eG*eG*eT*eG*d[5mC]*dT*d[5mC]*dA*dG*dG*dA*d[5mC]*dT*d[5mC]*e[5mC]*eA*eT*eT*eT) [compound 101757] | 17 | 13 |  |  |  |
| 180802 (antisense eG*e[5mC]*eT*e[5mC]*eG*dA*dA*dA*dG*dT*dA*d[5mC]*dA*dG*dG*eA*eA*e[5mC]*eA*eG) [compound 180802] |  |  | 79% | 40% |  |
| 180807 (antisense eA*eG*e[5mC]*eA*eA*dA*dT*dG*dT*dT*dG*dG*d[5mC]*dG*dT*eA*e[5mC]*eA*eG*eG) [compound 180807] |  |  | 74% | 48% |  |
| 180809 (antisense eG*eG*eA*eT*eT*dT*dT*dG*dA*dT*dG*d[5mC]*dT*dG*dG*eT*eT*eT*eT*eA) [compound 180809] |  |  | 53% | 57% |  |
| 180812 (antisense eT*e[5mC]*e[5mC]*eG*eG*dA*dT*d[5mC]*d[5mC]*dA*dG*d[5mC]*dA*dG*dG*eG*eA*eA*eG*eG) [compound 180812] | 5 | 20 | 47% |  | % Inhibition of RANKL mRNA (mouse RANKL mRNA [1]; 10 nM oligonucleotide): 0%; % Inhibition of RANKL mRNA (mouse RANKL mRNA [1]; 75 nM oligonucleotide): 13%; % Inhibition of RANKL mRNA (mouse RANKL mRNA [1]; 150 nM oligonucleotide): 45% |
| 180814 (antisense eG*eT*e[5mC]*eT*eT*dA*d[5mC]*dA*d[5mC]*dA*dT*dG*dT*dA*dT*eA*eG*eA*e[5mC]*eA) [compound 180814] | 14 | 70 | 66% |  | PTH-induced increase in serum calcium concentration ([3]; s.c. two weeks 5, 15, 30 or 40 mg/kg, 24 hours PTH infusion): lessen the PTH-induced increase in serum calcium concentration; % Inhibition of RANKL mRNA (mouse RANKL mRNA [1]; 10 nM oligonucleotide): 12%; % Inhibition of RANKL mRNA (mouse RANKL mRNA [1]; 75 nM oligonucleotide): 61%; % Inhibition of RANKL mRNA (mouse RANKL mRNA [1]; 150 nM oligonucleotide): 81% |
| 180828 (antisense eT*eT*eT*eA*eT*dT*dT*dT*dG*d[5mC]*dT*dT*dG*d[5mC]*dA*eT*eA*eG*eT*eT) [compound 180828] | 43 | 31 | 44% |  | % Inhibition of RANKL mRNA (mouse RANKL mRNA [1]; 10 nM oligonucleotide): 31%; % Inhibition of RANKL mRNA (mouse RANKL mRNA [1]; 75 nM oligonucleotide): 23%; % Inhibition of RANKL mRNA (mouse RANKL mRNA [1]; 150 nM oligonucleotide): 40% |
| GAGCTCCCGGACCCTGAGGC (listed as DNA, chemistry not given here) [ISIS 181080, antisense oligonucleotide targeted to mouse RANK] |  |  |  |  | RANK mRNA % inhibition (normalized to PTH) (RANK mRNA; 10 mg/kg two weeks): 47%; RANK mRNA % inhibition (normalized to PTH) (RANK mRNA; 20 mg/kg two weeks): 38%; RANK mRNA % inhibition (normalized to PTH) (RANK mRNA; 30 mg/kg two weeks): 48%; RANK mRNA % inhibition (normalized to PTH) (RANK mRNA; 40 mg/kg two weeks): 65%; expression of RANK mRNA in proximal tibia (RANK mRNA; [6]): inhibits expression of RANK mRNA in vivo; serum calcium ([4]; 10 mg/kg two weeks): 23 mg/dL; serum calcium ([4]; 20 mg/kg two weeks): 17 mg/dL; serum calcium ([4]; 30 mg/kg two weeks): 15 mg/dL; serum calcium ([4]; 40 mg/kg two weeks): 16 mg/dL; PTH-induced rise in serum calcium concentration [4, 6]: lessens the PTH-induced rise in serum calcium concentration |
| agcaaatgttggcgtacagg (antisense eA*eG*e[5mC]*eA*eA*dA*dT*dG*dT*dT*dG*dG*d[5mC]*dG*dT*eA*e[5mC]*eA*eG*eG) [ISIS 180807, 2′-MOE gapmer targeted to mouse and rat RANKL] |  |  | at least 40% | at least 40% |  |
| calcitonin [reference compound] |  |  |  |  | inhibition of PTH-induced serum calcium concentration ([3]; PTH infusion, n=8): 66 % inhibition |
| gctcgaaagtacaggaacag (antisense eG*e[5mC]*eT*e[5mC]*eG*dA*dA*dA*dG*dT*dA*d[5mC]*dA*dG*dG*eA*eA*e[5mC]*eA*eG) [ISIS 180802, 2′-MOE gapmer targeted to mouse and rat RANKL] |  |  | at least 40% | at least 40% |  |
| ggattttgatgctggtttta (antisense eG*eG*eA*eT*eT*dT*dT*dG*dA*dT*dG*d[5mC]*dT*dG*dG*eT*eT*eT*eT*eA) [ISIS 180809, 2′-MOE gapmer targeted to mouse and rat RANKL] |  |  | at least 40% | at least 40% |  |
| PTH alone (peptide, UniProt P01270 32-115, looked up) Parathyroid hormone: SVSEIQLMHNLGKHLNSMERVEWLRKKLQDVHNFVALGAPLAPRDAGSQRPRKKEDNVLVESHEKSLGEADKADVNVLTKAKSQ |  |  |  |  | Serum calcium concentration [5]: 21 mg/dL |

Reference: patent US20050060764A1, “Mouse model for bone metabolism” (priority 2003, published 2005)
